15 compounds from patent publication US11613542B2, “Sulfonylureas and sulfonylthioureas as NLRP3 inhibitors” (Inflazome Limited, priority 2017, dated 2023) can be followed below.

Structures can show the parent of a compound that is named as a salt. Bounds are passed on as bounds.

The target of data set [1] is T1, NLRP3 (Homo sapiens, UniProt Q96P20). Description: Human whole blood IL1β release assay. Particulars: human whole blood, 1 μg/ml LPS, compound 3 hrs, nigericin 10 μM 1 hr, IL-1β AlphaLisa; read-out: HWB IC50. It is filed as cell-based. On the set-up: Human whole blood in Li-heparin tubes was obtained from healthy donors; from tissue; host or cells: human whole blood from healthy donors, LPS-primed, nigericin-stimulated. The procedure: Human Whole Blood IL1β Release Assay
T1 sequence (Q96P20 whole entry): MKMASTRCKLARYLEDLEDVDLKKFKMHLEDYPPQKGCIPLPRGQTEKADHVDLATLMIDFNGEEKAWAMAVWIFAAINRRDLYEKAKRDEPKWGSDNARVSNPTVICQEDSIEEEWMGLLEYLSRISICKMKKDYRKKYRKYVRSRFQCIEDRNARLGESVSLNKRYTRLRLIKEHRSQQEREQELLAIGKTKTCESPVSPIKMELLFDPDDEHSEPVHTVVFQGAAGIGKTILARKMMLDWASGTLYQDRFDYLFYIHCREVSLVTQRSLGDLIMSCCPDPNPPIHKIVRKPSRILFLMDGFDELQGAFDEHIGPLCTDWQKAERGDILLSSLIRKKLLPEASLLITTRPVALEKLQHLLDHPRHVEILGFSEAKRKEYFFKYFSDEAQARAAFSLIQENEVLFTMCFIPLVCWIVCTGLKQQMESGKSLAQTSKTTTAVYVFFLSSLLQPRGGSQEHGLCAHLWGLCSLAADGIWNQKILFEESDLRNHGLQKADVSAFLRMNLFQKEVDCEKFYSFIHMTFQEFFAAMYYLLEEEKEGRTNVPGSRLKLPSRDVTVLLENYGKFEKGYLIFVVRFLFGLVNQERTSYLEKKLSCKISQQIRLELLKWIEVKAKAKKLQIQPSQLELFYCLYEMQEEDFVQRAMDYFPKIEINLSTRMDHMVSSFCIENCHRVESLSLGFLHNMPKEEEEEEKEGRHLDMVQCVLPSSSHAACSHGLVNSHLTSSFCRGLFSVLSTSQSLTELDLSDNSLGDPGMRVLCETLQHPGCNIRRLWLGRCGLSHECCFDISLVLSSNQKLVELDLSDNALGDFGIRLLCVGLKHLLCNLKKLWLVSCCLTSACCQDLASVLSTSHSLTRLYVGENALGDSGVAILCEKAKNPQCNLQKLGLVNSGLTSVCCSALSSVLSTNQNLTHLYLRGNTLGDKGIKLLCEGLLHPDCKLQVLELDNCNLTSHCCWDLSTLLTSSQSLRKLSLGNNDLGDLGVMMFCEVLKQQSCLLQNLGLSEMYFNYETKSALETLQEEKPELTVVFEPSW
For systemic delivery, the ability to inhibit NLRP3 when the compounds are present within the bloodstream is of great importance. For this reason, the NLRP3 inhibitory activity of a number of compounds in human whole blood was investigated in accordance with the following protocol.
Human whole blood in Li-heparin tubes was obtained from healthy donors from a volunteer donor panel. • 1. Plate out 80 μl of whole blood containing 1 μg/ml of LPS in 96-well, clear bottom cell culture plate (Corning #3585) • 2. Add 10 μl compound (8 points half-log dilution with 10 μM top dose) or vehicle (DMSO 0.1% FAC) to the appropriate wells • 3. Incubate for 3 hrs at 37° C., 5% CO2 • 4. Add 10 μl Nigericin (Sigma #N7143) (10 μM FAC) to all wells • 5. Incubate for 1 hr at 37° C., 5% CO2 • 6. At the end of the incubation period, spin plates at 300 xg for 5 mins to pellet cells and remove 20 μl of supernatant and add to 96-well v-bottom plates for IL-1β analysis (note: these plates containing the supernatants can be stored at −80° C. to be analysed at a later date) • 7. IL-1β was measured according to the manufacturer protocol (Perkin Elmer-AlphaLisa IL-1 Kit AL220F-5000) • 8. IC50 data is fitted to a non-linear regression equation (log inhibitor vs response-variable slope 4-parameters)

Data set [2] addresses T1, NLRP3. Description: THP-1 cells pyroptosis assay. It is filed as cell-based. On the set-up: Seed THP-1 cells (25,000 cells/well) containing 1.0 μg/ml LPS; host or cells: THP-1 cells, LPS-primed, nigericin-stimulated. Particulars: THP-1 cells, 1.0 μg/ml LPS, compound 3 hrs, nigericin 5 μM 1 hr, resazurin readout; read-out: THP IC50. An excerpt:
NLRP and Pyroptosis It is well established that the activation of NLRP3 leads to cell pyroptosis and this feature plays an important part in the manifestation of clinical disease (Yan-gang Liu et al., Cell Death &Disease, 2017, 8(2), e2579; Alexander Wree et al., Hepatology, 2014, 59(3), 898-910; Alex Baldwin et al., Journal of Medicinal Chemistry, 2016, 59(5), 1691-171; Ema Ozaki et al., Journal of Inflammation Research, 2015, 8, 15-27; Zhen Xie & Gang Zhao, Neuroimmunology Neuroinflammation, 2014, 1(2), 60-65; Mattia Cocco et al., Journal of Medicinal Chemistry, 2014, 57(24), 10366-10382; T. Satoh et al., Cell Death &Disease, 2013, 4, e644). Therefore, it is anticipated that inhibitors of NLRP3 will block pyroptosis, as well as the release of pro-inflammatory cytokines (e.g. […]) from the cell. THP-1 Cells: Culture and Preparation THP-1 cells (ATCC #TIB-202) were grown in RPMI containing L-glutamine (Gibco #11835) supplemented with imM sodium pyruvate (Sigma #S8636) and penicillin (100 units/ml)/streptomycin (0.1 mg/ml) (Sigma #P4333) in 10% Fetal Bovine Serum (FBS) (Sigma #Fo804). The cells were routinely passaged and grown to confluency (˜10^6 cells/ml). On the day of the experiment, THP-1 cells were harvested and resuspended into RPMI medium (without FBS). The cells were then counted and viability (>90%) checked by Trypan blue (Sigma #T8154). Appropriate dilutions were made to give a concentration of 625,000 cells/ml. To this diluted cell solution was added LPS (Sigma #L4524) to give a […] Final Assay Concentration (FAC). 40 μl of the final preparation was aliquoted into each well of a 96-well plate. The plate thus prepared was used for compound screening. THP-1 Cells Pyroptosis Assay The following method step-by-step assay was followed for compound screening. • 1. Seed THP-1 cells (25,000 cells/well) containing 1.0 μg/ml LPS in 40 μl of RPMI medium (without FBS) in 96-well, black walled, clear bottom cell culture plates coated with poly-D-lysine (VWR #734-0317) • 2. Add […] compound (8 points half-log dilution, with 10 μM top dose) or vehicle (DMSO 0.1% FAC) to the appropriate wells • 3. […] Add 5 μl nigericin (Sigma #N7143) (FAC 5 μM) to all wells • 5. […] At the end of the incubation period, spin plates at 300 xg for 3 mins and remove supernatant • 7. Then add 50 μl of resazurin (Sigma #R7017) (FAC 100μ M resazurin in RPMI medium without FBS) and incubate plates for a further 1-2 hrs at 37° C. and 5% CO2 • 8. Plates were read in an Envision reader at Ex 560 nm and Em 590 nm • 9. IC50 data is fitted to a non-linear regression equation (log inhibitor vs response-variable slope 4-parameters) [table]

The nature of data set [3]: Pharmacokinetic parameters in male Sprague Dawley rats (intravenous and oral administration). In kind it is in vivo. The conditions noted are these: intravenous administration, rat plasma; dose per compound (mg/kg). The procedure:
Pharmacokinetic parameters were determined in male Sprague Dawley rats (Charles River, UK, 250-350 g; or Vital River Laboratory Animal Technology Co Ltd, Beijing, China, 7-9 weeks old). Animals were individually housed during the study and maintained under a 12 h light/dark cycle. Animals had free access to food and water except that some orally dosed animals were food deprived overnight prior to the study.
For intravenous administration, compounds were formulated as a solution in water or DMSO:PBS [10:90] in 2 mL/kg dosing volume and administered via tail vein. For oral administration, compounds were formulated as a solution in water or DMSO:water [10:90] in 5 mL/kg dosing volume and administered orally.
Serial blood samples (about 120-300 μL) were taken from each animal at each of 8 time-points post dose (0.083, 0.25, 0.5, 1, 2, 4, 8 and 24 h) or at each of 12 time-points post dose (0.03, 0.1, 0.17, 0.25, 0.5, 1, 2, 4, 6, 8,12 and 24 h) or pre-dose and at each of 9 time-points post dose (0.25, 0.5, 1, 2, 4, 6, 8, 12 and 24 h). Samples were held on ice for no longer than 30 minutes before centrifugation (10,000 rpm (8,385 g) for 3 minutes; or 5,696 rpm (3,000 g) for 15 minutes) for plasma generation. Plasma was frozen on dry ice prior to bioanalysis. PK parameters were generated from LC-MS/MS data using Dotmatics or Phoenix WinNonlin 6.3 software.

With `CN(C)CC(C)(C)n1ccc(S(=O)(=O)NC(=O)Nc2c(-c3ccnc(C#N)c3)ccc3c2CCC3)n1` [Example 196, N-((5-(2-Cyanopyridin-4-yl)-2,3-dihydro-1H-inden-4-yl)carbamoyl)-1-(1-(dimethylamino)-2-methylpropan-2-yl)-1H-pyrazole-3-sulfonamide], the figures for the IC50 on NLRP3 [1] and at NLRP3 [2] were less than 400 nM and less than 40 nM, respectively.

As for `CC(C)N(C)C(=O)c1cc(S(=O)(=O)NC(=O)Nc2c3c(cc4c2CCC4)CCC3)nn1C` [Example 164, 3-(N-((1,2,3,5,6,7-Hexahydro-s-indacen-4-yl)carbamoyl)sulfamoyl)-N-isopropyl-N,1-dimethyl-1H-pyrazole-5-carboxamide], the IC50 at NLRP3 [1] was less than 3200 nM; on NLRP3 [2] it was less than 160 nM.

For the compound `CCN(C)C(=O)c1cc(S(=O)(=O)NC(=O)Nc2c(C(C)C)cccc2C(C)C)nn1C` [Example 156, 3-(N-((2,6-Diisopropylphenyl)carbamoyl)sulfamoyl)-N-ethyl-N,1-dimethyl-1H-pyrazole-5-carboxamide], the results for the IC50 on NLRP3 [1] and on NLRP3 [2] were less than 3200 nM and less than 2560 nM, respectively.

Regarding `CN(CCO)Cc1cc(S(=O)(=O)NC(=O)Nc2c3c(cc4c2CCC4)CCC3)nn1C` [Example 124, N-((1,2,3,5,6,7-Hexahydro-s-indacen-4-yl)carbamoyl)-5-(((2-hydroxyethyl)(methyl)amino)methyl)-1-methyl-1H-pyrazole-3-sulfonamide], in data set [3], the AUC was 2067.0 ng·h/mL, the Cl came to 8.1 mL/min/kg, the T1/2 was determined as 14.2 h and the Vdss turned out to be 1.9 L/kg. In addition, the IC50 on NLRP3 [2] was less than 160 nM.

As for `CN(C)CC(C)(C)n1ccc(S(=O)(=O)NC(=O)Nc2c(-c3ccnc(OC4CC4)c3)ccc3c2CCC3)n1` [Example 194, N-((5-(2-Cyclopropoxypyridin-4-yl)-2,3-dihydro-1H-inden-4-yl)carbamoyl)-1-(1-(dimethylamino)-2-methylpropan-2-yl)-1H-pyrazole-3-sulfonamide, sodium salt], the IC50 at NLRP3 [1] was less than 400 nM; at NLRP3 [2] it was less than 40 nM.

Consider `CN(C)C(=O)Cn1ccc(S(=O)(=O)NC(=O)Nc2c3c(cc4c2CCC4)CCC3)n1` [Example 1, 2-(3-(N-((1,2,3,5,6,7-Hexahydro-s-indacen-4-yl)carbamoyl)sulfamoyl)-1H-pyrazol-1-yl)-N,N-dimethylacetamide, sodium salt], for which the results for the IC50 on NLRP3 [1] and at NLRP3 [2] were less than 10000 nM and less than 640 nM, respectively.

On to `CCN(CC)C(=O)c1cc(S(=O)(=O)NC(=O)Nc2c3c(cc4c2CCC4)CCC3)nn1C` [Example 165, N,N-diethyl-3-(N-((1,2,3,5,6,7-Hexahydro-s-indacen-4-yl)carbamoyl)sulfamoyl)-1-methyl-1H-pyrazole-5-carboxamide], for which the IC50 at NLRP3 [1] is less than 1600 nM; on NLRP3 [2], less than 160 nM.

For `COc1cc(-c2ccc3c(c2NC(=O)NS(=O)(=O)c2ccn(C(C)(C)C#N)n2)CCC3)ccn1` [Example 195, 1-(2-Cyanopropan-2-yl)-N-((5-(2-methoxypyridin-4-yl)-2,3-dihydro-1H-inden-4-yl)carbamoyl)-1H-pyrazole-3-sulfonamide, sodium salt], the IC50 on NLRP3 [1] was less than 400 nM; at NLRP3 [2], less than 40 nM.

Regarding `Cn1nc(S(=O)(=O)NC(=O)Nc2c3c(cc4c2CCC4)CCC3)cc1CN1CCOCC1` [Example 128, N-((1,2,3,5,6,7-Hexahydro-s-indacen-4-yl)carbamoyl)-1-methyl-5-(morpholinomethyl)-1H-pyrazole-3-sulfonamide], the IC50 on NLRP3 [2] was less than 2560 nM.

Consider `CN1CCn2nc(S(=O)(=O)NC(=O)Nc3c4c(cc5c3CCC5)CCC4)cc2C1=O` [Example 5, N-((1,2,3,5,6,7-Hexahydro-s-indacen-4-yl)carbamoyl)-5-methyl-4-oxo-4,5,6,7-tetrahydropyrazolo[1,5-a]pyrazine-2-sulfonamide, sodium salt], for which the IC50 on NLRP3 [2] is less than 10000 nM.

With `Cn1nc(S(=O)(=O)NC(=O)Nc2c3c(cc4c2CCC4)CCC3)cc1C(=O)N1CC(F)C1` [Example 161, 5-(3-Fluoroazetidine-1-carbonyl)-N-((1,2,3,5,6,7-hexahydro-s-indacen-4-yl)carbamoyl)-1-methyl-1H-pyrazole-3-sulfonamide, partial ammonium salt], at NLRP3 [2], the IC50 was less than 2560 nM.

As for `CC(C)c1cccc(C(C)C)c1NC(=O)NS(=O)(=O)c1cc(C(=O)N(C)CC#N)n(C)n1` [Example 140, N-(Cyanomethyl)-3-(N-((2,6-diisopropylphenyl)carbamoyl)sulfamoyl)-N,1-dimethyl-1H-pyrazole-5-carboxamide], on NLRP3 [2], the IC50 was less than 10000 nM.

On to `CC(C)c1cccc(C(C)C)c1NC(=O)NS(=O)(=O)c1cc(C(=O)N2CCCC2)n(C)n1` [Example 163, N-((2,6-Diisopropylphenyl)carbamoyl)-1-methyl-5-(pyrrolidine-1-carbonyl)-1H-pyrazole-3-sulfonamide], for which, on NLRP3 [2], the IC50 is less than 2560 nM.

As to `Cn1nc(S(=O)(=O)NC(=O)Nc2c3c(cc4c2CCC4)CCC3)cc1C(=O)N1CCCC1` [Example 159, N-((1,2,3,5,6,7-Hexahydro-s-indacen-4-yl)carbamoyl)-1-methyl-5-(pyrrolidine-1-carbonyl)-1H-pyrazole-3-sulfonamide], the IC50 at NLRP3 [2] was less than 2560 nM.

`COCCN(C)Cc1cc(S(=O)(=O)NC(=O)Nc2c(C(C)C)cc(F)cc2C(C)C)nn1C` [Example 125, N-((4-Fluoro-2,6-diisopropylphenyl)carbamoyl)-5-(((2-methoxyethyl)(methyl)amino)methyl)-1-methyl-1H-pyrazole-3-sulfonamide, sodium salt]: at NLRP3 [2], the IC50 was less than 2560 nM.
